{"source": "patent US20260166029A1", "about": "“METHODS AND SYSTEMS FOR TREATING DISEASE USING AN ATR/CHK1 SIGNALING PATHWAY INHIBITOR” (Acrivon Therapeutics, Inc., priority 2022, published 2026)", "key": {"Ovarian, metastases": {"system": "Ovarian, metastases", "settings": "cited from earlier work"}, "SCLC": {"system": "SCLC", "settings": "cited from earlier work"}, "Head and Neck, SCC": {"system": "Head and Neck, SCC", "settings": "cited from earlier work"}, "ST260 ovarian PDX tumor": {"system": "ST260 ovarian PDX tumor", "test": "Response to prexasertib treatment in ovarian PDX tumor model (Example 3)", "type": "in vivo", "set-up": "key to Response type: CR = complete regression; PR = partial regression; S = stasis; G = growth", "description": "(§1) To evaluate whether the provided Response-Predictive Signature can predict response to prexasertib treatment, the predicted response for each PDX model was compared to an experimentally determined response to prexasertib treatment for the same PDX model. The experimentally measured response was quantified as follows: if a treated tumor reduced in size/volume, then the percent regression compared to an initial volume of a treated tumor was provided, if a treated tumor increased in size/volume, then a percent ratio of the treated tumor's growth was divided by control tumor (i.e., untreated tumor) growth (d[T/C]). Negative values for regression percentage indicate response to treatment with prexasertib, while positive values indicate continued growth and non-response to prexasertib treatment. The experimentally measured response was further categorized as complete regression (near −100% regression), partial regression (−50% to −100% regression), stasis (<20% median tumor growth to −50% regression), and growth (>20% median tumor growth)."}, "ST2249 ovarian PDX tumor": {"system": "ST2249 ovarian PDX tumor", "test": "Response to prexasertib treatment in ovarian PDX tumor model (Example 3)", "type": "in vivo", "set-up": "key to Response type: CR = complete regression; PR = partial regression; S = stasis; G = growth", "description": "as §1"}, "ST206B ovarian PDX tumor": {"system": "ST206B ovarian PDX tumor", "test": "Response to prexasertib treatment in ovarian PDX tumor model (Example 3)", "type": "in vivo", "set-up": "key to Response type: CR = complete regression; PR = partial regression; S = stasis; G = growth", "description": "as §1"}, "ST1827 ovarian PDX tumor": {"system": "ST1827 ovarian PDX tumor", "test": "Response to prexasertib treatment in ovarian PDX tumor model (Example 3)", "type": "in vivo", "set-up": "key to Response type: CR = complete regression; PR = partial regression; S = stasis; G = growth", "description": "as §1"}, "ST182B ovarian PDX tumor": {"system": "ST182B ovarian PDX tumor", "test": "Response to prexasertib treatment in ovarian PDX tumor model (Example 3)", "type": "in vivo", "set-up": "key to Response type: CR = complete regression; PR = partial regression; S = stasis; G = growth", "description": "as §1"}, "ST2067 ovarian PDX tumor": {"system": "ST2067 ovarian PDX tumor", "test": "Response to prexasertib treatment in ovarian PDX tumor model (Example 3)", "type": "in vivo", "set-up": "key to Response type: CR = complete regression; PR = partial regression; S = stasis; G = growth", "description": "as §1"}, "[1]": {"system": "metastatic high-grade serous ovarian cancer", "test": "Observed treatment outcome in phase II clinical trials, patients with frozen pre-treatment biopsies (Example 4)", "type": "in vivo, human", "set-up": "key to Treatment Result (RECIST): partial response (PR); stable disease (SD); progressive disease (PD)", "method": "The study was conducted in a blinded, prospectively designed manner on pretreatment tumor biopsies collected from ovarian cancer patients treated in phase 2 trials at the NCI in the past with prexasertib, including a previous single center phase II clinical trial for prexasertib in metastatic high-grade serous ovarian cancer; see Lee et al., Lancet Oncol. 19(2): 207-215 (2018). These past studies were unable to identify predictive biomarkers. To evaluate whether a provided Response-Predictive Signature can successfully predict patient responders, frozen, de-identified sections of pre-treatment tumor biopsies from the phase II clinical trials were obtained. Moreover, they were received without any knowledge about clinical annotation, including response to prexasertib. Each patient tumor biopsy sample was stained using antibodies against three biomarkers and imaged using immunofluorescence microscopy. Biomarker 1 (BM1) was Ser296 phosphorylated Chk1. Biomarker 2 (BM2) was Ser473 phosphorylated Kap1. Biomarker 3 (BM3) was total cyclin E1. Unless otherwise indicated, these were the biomarkers used throughout the Examples.\nTo evaluate whether the provided Response-Predictive Signature can predict response to prexasertib treatment, the predicted response for each patient was compared to the observed treatment outcomes in the previously conducted phase II clinical trials for the patient (Table 6 and FIGS. 5, 12, and 13). This was done in a blinded manner, with quantitative biomarker scores and clinical annotation provided to a third-party biostatistician and the principal investigator, respectively. Observed treatment outcomes were classified according to RECIST criteria as partial response (PR), stable disease (SD), or progressive disease (PD). […] Additionally, the observed treatment outcome was quantified based on the fractional change in tumor volume after treatment and progression free survival (PFS) (Table 6 and FIGS. 5, 12, and 13)."}, "Ovarian, primary HGS": {"system": "Ovarian, primary HGS", "settings": "trial 2, 46 multi-center, 8-country study; cited from earlier work"}, "PANC1": {"system": "PANC1", "settings": "PANC1 cell line; external data from prior publications; cited from earlier work"}, "HCT116": {"system": "HCT116", "settings": "HCT116 cell line; external data from prior publications; cited from earlier work"}, "[2]": {"settings": "individual patients predicted non-responder (NR)"}, "[3]": {"settings": "individual patients predicted responder (R)"}}, "note": "Values joined by “and” are separate entries in the source; they are usually repeats but may differ in a detail not shown here. Identical values can stand only once. Like-named read-outs stand apart in the source and are kept apart here."}
{"smiles": "COc1cccc(OCCCN)c1-c1cc(Nc2cnc(C#N)cn2)n[nH]1", "note": "[prexasertib, 5-(5-(2-(3-aminopropoxy)-6-methoxyphenyl)-1H-pyrazol-3-ylamino)pyrazine-2-carbonitrile]", "values": [{"measurement": "ORR in trials", "setting": "Ovarian, metastases; Ovarian, metastases, trial 1, NCI phase II trial", "value": "32% (trial 1*)"}, {"measurement": "response rate", "setting": "Ovarian, metastases; single center, phase 2 study in ovarian cancer at NCI, single agent", "value": 29, "unit": "%"}, {"measurement": "ORR in trials", "setting": "SCLC; platinum resistant", "value": "0% (platinum"}, {"measurement": "ORR in trials", "setting": "SCLC; platinum sensitive", "value": "5% (platinum"}, {"measurement": "ORR in trials", "setting": "Head and Neck, SCC", "value": 5, "unit": "%"}, {"measurement": "Response type", "setting": "ST260 ovarian PDX tumor", "value": "CR"}, {"measurement": "Best d[T/C], or Regression", "setting": "ST260 ovarian PDX tumor; negative = regression", "value": "−100", "unit": "%"}, {"measurement": "Response type", "setting": "ST2249 ovarian PDX tumor", "value": "CR"}, {"measurement": "Best d[T/C], or Regression", "setting": "ST2249 ovarian PDX tumor; negative = regression", "value": "−100", "unit": "%"}, {"measurement": "Response type", "setting": "ST206B ovarian PDX tumor", "value": "CR"}, {"measurement": "Best d[T/C], or Regression", "setting": "ST206B ovarian PDX tumor; negative = regression", "value": "−100", "unit": "%"}, {"measurement": "Response type", "setting": "ST1827 ovarian PDX tumor", "value": "CR"}, {"measurement": "Best d[T/C], or Regression", "setting": "ST1827 ovarian PDX tumor; negative = regression", "value": "−100", "unit": "%"}, {"measurement": "Response type", "setting": "ST182B ovarian PDX tumor", "value": "CR"}, {"measurement": "Best d[T/C], or Regression", "setting": "ST182B ovarian PDX tumor; negative = regression", "value": "−100", "unit": "%"}, {"measurement": "Response type", "setting": "ST2067 ovarian PDX tumor", "value": "CR"}, {"measurement": "Best d[T/C], or Regression", "setting": "ST2067 ovarian PDX tumor; negative = regression", "value": "−100", "unit": "%"}, {"measurement": "FracShrink (fractional change in tumor volume)", "setting": "[1]; [2]", "value": "0.109 and 0 and −0.26 and −0.1 and 1.04 and 0.02 and 0.085 and −0.04"}, {"measurement": "PFS", "setting": "[1]; [2]", "value": "70 days and 56 days and 223 days and 104 days and 63 days and 33 days and 62 days and 112 days"}, {"measurement": "Treatment Result (RECIST)", "setting": "[1]; [2]", "value": "SD (4×) and PD (4×)"}, {"measurement": "FracShrink (fractional change in tumor volume)", "setting": "[1]; [3]", "value": "−0.36 and −0.345 and −0.46 and −0.33 and −0.27 and −0.01 (2×) and −0.23 and −0.76 and −0.14 and −0.02 and −0.11 and −0.5 and −0.495 and −0.194"}, {"measurement": "PFS", "setting": "[1]; [3]", "value": "101 days and 402 days and 286 days and 211 days and 392 days and 62 days and 510 days and 602 days and 238 days and 258 days and 140 days and 293 days and 230 days and 112 days and 123 days"}, {"measurement": "Treatment Result (RECIST)", "setting": "[1]; [3]", "value": "PR (7×) and SD (7×) and PD"}, {"measurement": "ORR in trials", "setting": "Ovarian, primary HGS", "value": "19% (trial 2^)"}, {"measurement": "EC50", "setting": "PANC1", "value": "> 10", "unit": "µM"}, {"measurement": "EC50", "setting": "HCT116", "value": 0.1, "unit": "µM"}]}
